This note sets out measurements from patent US12122778B2, “Activating pyruvate kinase R” (Novo Nordisk Health Care AG, priority 2018, dated 2024).

The target of experiment [1] is PKR(R510Q) (Homo sapiens, UniProt P30613, R510Q). Kind of experiment: Luminescence Biochemical Assay (Kinase Glo Plus), PKR R510Q mutant. The following applies: without FBP; for activation at 1.54 µM: 1.54 μM compound, read-out: AC50 LUM KGP woFBP % Fold@1.54 μM mean; for Emax: read-out: AC50 LUM KGP woFBP MAX % FOLD mean.
Chain of PKR(R510Q) (P30613 whole entry R510Q): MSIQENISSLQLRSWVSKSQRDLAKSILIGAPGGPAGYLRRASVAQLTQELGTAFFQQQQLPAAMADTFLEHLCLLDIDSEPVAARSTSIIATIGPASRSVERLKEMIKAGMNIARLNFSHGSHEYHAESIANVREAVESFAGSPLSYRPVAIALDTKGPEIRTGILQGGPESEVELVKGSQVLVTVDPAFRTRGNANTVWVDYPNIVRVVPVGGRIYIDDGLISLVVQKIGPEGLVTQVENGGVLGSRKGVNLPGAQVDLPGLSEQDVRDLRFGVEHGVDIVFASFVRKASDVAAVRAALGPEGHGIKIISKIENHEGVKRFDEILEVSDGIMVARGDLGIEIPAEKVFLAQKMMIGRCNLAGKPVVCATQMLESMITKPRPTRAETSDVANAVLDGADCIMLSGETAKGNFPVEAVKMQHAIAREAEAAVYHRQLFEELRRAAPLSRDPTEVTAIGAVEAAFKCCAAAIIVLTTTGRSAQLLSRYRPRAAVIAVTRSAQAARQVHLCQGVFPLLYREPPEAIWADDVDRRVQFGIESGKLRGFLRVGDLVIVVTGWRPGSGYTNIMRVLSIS
For experiment [2], the target named is PKR(G332S) (Homo sapiens, UniProt P30613, G332S). As to the kind of experiment: Luminescence Biochemical Assay (Kinase Glo Plus), PKR G332S mutant. As to conditions: with FBP; for activation at 1.54 µM: 1.54 μM compound, read-out: AC50 LUM KGP FBP % Fold@1.54 μM mean; for Emax: read-out: AC50 LUM KGP FBP MAX % FOLD mean. The protocol: In some embodiments, a PKR Activating Compound can have: (1) an AC50 value of less than 0.1 μM (e.g., compounds with AC50 values of “+++” in Table 13), 0.1-1.0 μM (e.g., compounds with AC50 values of “++” in Table 13), or 1.01-40 μM (e.g., compounds with AC50 values of “+” in Table 13); (2) a MAX % Fold of 75%-250%, 250-500%, or 75%-500%; and/or (3) a % Fold@1.54 μM of 75%-250%, 250-500%, or 75%-500%. In some embodiments, a PKR Activating Compound has (1) an AC50 value of less than 1.0 μM; (2) a MAX % Fold of 75%-500%; and/or (3) a % Fold@1.54 μM of 75%-500%.
Chain of PKR(G332S) (P30613 whole entry G332S): as the sequence (P30613 whole entry R510Q) above, with G332S, Q510R counted along it
The phosphorylation of Adenosine-5′-diphosphate (ADP) by various mutants of PKR was determined by the Kinase Glo Plus Assay (Promega) in the presence or absence of FBP [D-Fructose-1,6-diphosphate; BOC Sciences, CAS: 81028-91-3] as follows. Unless otherwise indicated, all reagents were purchased from Sigma-Aldrich. All reagents were prepared in buffer containing 50 mM Tris-HCl, 100 mM KCl, 5 mM MgCl2, and 0.01% Triton X100, 0.03% BSA, and 1 mM DTT. Enzyme and PEP [Phospho(enol) pyruvic acid] were added at 2× to all wells of an assay-ready plate containing serial dilutions of test compounds or DMSO vehicle. Final enzyme concentrations for PKR(wt), PKR(R510Q), and PKR(G332S) were 0.8 nM, 0.8 nM, and 10 nM respectively. Final PEP concentration was 100 μM. The Enzyme/PEP mixture was incubated with compounds for 30 minutes at RT before the assay was initiated with the addition of 2×ADP [Adenosine-5′-diphosphate] and KinaseGloPlus. Final concentration of ADP was 100 μM. […] For assays containing FBP, that reagent is added at 30 μM upon reaction initiation. Reactions were allowed to progress for 45 minutes at RT until luminescence was recorded by the BMG PHERAstar FS Multilabel Reader. All compounds were tested in triplicate at concentrations ranging from 42.5 μM to 2.2 nM in 0.83% DMSO.
Luminescence values were converted to % Fold increase by normalizing to the average of the DMSO control and multiplying by 100. Max, min, slope and AC50 were determined by the standard four parameter fit algorithm of ActivityBase XE Runner. Compounds were evaluated with three parameters—AC50, MAX % Fold, and % Fold@1.54 μM (FIG. 1). The AC50 value for a compound is the concentration (μM) corresponding to the midway between the maximum and minimum values of the four parameter logistic curve fit (i.e., at which the % fold increase along the four parameter logistic curve fit is halfway between MAX % Fold and MIN % Fold (% Fold Midpoint)), MAX % Fold is the highest fold increase observed at any concentration of compound, and % Fold@1.54 μM is the fold increase at a compound concentration of 1.54 μM. The parameter % Fold@1.54 μM was selected to capture elements of both the AC50 and MAX % Fold and to provide a ranking based on both potency and effect. The compound concentration of 1.54 μM was chosen as one that can optimally differentiate the set of compounds based on the range of activities observed.
As set forth in Table 13 below, AC50 values (columns A, D, G) are defined as follows: ≤0.1 μM (+++); >0.1 μM and ≤1.0 μM (++); >1.0 μM and ≤40 μM (+); >40 μM (0). Max % FOLD values (columns B, E, H) are defined as follows: ≤75% (+); >75% and ≤250% (++); >250% and ≤500% (+++). % Fold@1.54 μM values (columns C, F, J) are defined as follows: ≤75% (+); >75% and ≤250% (++); >250% and ≤50000 (+++).
On the technique in general: In Kinase-Glo more light means more ATP remaining.

The target in experiment [3] is PKR(wt) (Homo sapiens, UniProt P30613). As to the kind of experiment: Luminescence Biochemical Assay (Kinase Glo Plus), wild type PKR. The following applies: without FBP; for activation at 1.54 µM: 1.54 μM compound, read-out: AC50 LUM KGP woFBP % Fold@1.54 μM mean; for AC50: read-out: AC50 LUM KGP woFBP AC50 μM gmean; for Emax: read-out: AC50 LUM KGP woFBP MAX % FOLD mean.
Chain of PKR(wt) (P30613 whole entry): as the sequence (P30613 whole entry R510Q) above, with Q510R counted along it

Where [4] appears, read: read-out: AC50 LUM KGP woFBP AC50 μM gmean.
The mark [5] stands for this setting: read-out: AC50 LUM KGP FBP AC50 μM gmean (column A).

Where two headings read alike, the source gives them in different places.

The term AC50 denotes the midpoint of the concentration-response curve, whichever way the signal moves. For the compound `O=C([C@@H](O)c1ccccn1)N1CC2=C(C1)CN(S(=O)(=O)c1ccc(OC(F)F)cc1)C2` (single isomer, unassigned) [Example 8-3], the activation at 1.54 µM is 250 to 50000% in experiment [1], 75 to 250% in experiment [2] and 250 to 50000% in experiment [3]. The AC50 in experiment [1] (setting [4]), in experiment [2] (setting [5]) and in experiment [3] was 0.1 to 1 µM each time. Also, the Emax in experiment [1] is 250 to 500%; in experiment [2], 75 to 250%; in experiment [3], 250 to 500%.
As to `O=C([C@H](O)c1ccc2c(c1)NCCO2)N1CC2=C(C1)CN(S(=O)(=O)c1ccc(OC(F)F)cc1)C2` (single isomer, unassigned) [Example 9-4], the activation at 1.54 µM in experiment [1], in experiment [2] and in experiment [3] was 75 to 250% in each case. Moreover, the AC50 was in the range of 1 to 40 µM in experiment [1] (setting [4]), 0.1 to 1 µM in experiment [2] (setting [5]) and 1 to 40 µM in experiment [3]. Also, the Emax in experiment [1] was in the range of 250 to 500%; in experiment [2], 75 to 250%; in experiment [3] it was 250 to 500%.
Take `O=C([C@@H](O)c1ccc2c(c1)NCCO2)N1CC2=C(C1)CN(S(=O)(=O)c1ccc(OC(F)F)cc1)C2` (single isomer, unassigned) [Example 9-5]: the values for the activation at 1.54 µM in experiment [1], in experiment [2] and in experiment [3] were 250 to 50000%, 75 to 250% and 250 to 50000%, respectively. The AC50 in experiment [1] (setting [4]), in experiment [2] (setting [5]) and in experiment [3] was at most 0.1 µM in each case. The Emax in experiment [1] lay in the range of 250 to 500%; in experiment [2], 75 to 250%; in experiment [3], 250 to 500%.
For `CN1CCOc2ccc([C@@H](O)C(=O)N3CC4=C(C3)CN(S(=O)(=O)c3ccc(OC(F)F)cc3)C4)cc21` (single isomer, unassigned) [Example 10-1], the activation at 1.54 µM in experiment [1], in experiment [2] and in experiment [3] was 75 to 250% in each case. Also, the values for the AC50 in experiment [1] (setting [4]), in experiment [2] (setting [5]) and in experiment [3] were 1 to 40 µM, 0.1 to 1 µM and 1 to 40 µM, respectively. The Emax lay within 250 to 500% in experiment [1], 75 to 250% in experiment [2] and 250 to 500% in experiment [3].
Consider `CN1CCOc2ccc([C@H](O)C(=O)N3CC4=C(C3)CN(S(=O)(=O)c3ccc(OC(F)F)cc3)C4)cc21` (single isomer, unassigned) [Example 10-2], for which the values for the activation at 1.54 µM in experiment [1], in experiment [2] and in experiment [3] were 250 to 50000%, 75 to 250% and 250 to 50000%, respectively. The AC50 is 0.1 to 1 µM in experiment [1] (setting [4]), at most 0.1 µM in experiment [2] (setting [5]) and at most 0.1 µM in experiment [3]. Also, the figures for the Emax in experiment [1], in experiment [2] and in experiment [3] were 250 to 500%, 75 to 250% and 250 to 500%, respectively.
On to `O=C([C@@H](O)c1ccc2c(c1)CNCC2)N1CC2=C(C1)CN(S(=O)(=O)c1ccc(OC(F)F)cc1)C2` (single isomer, unassigned) [Example 11-1], for which the activation at 1.54 µM in experiment [1] lay in the range of 250 to 50000%; in experiment [2], 75 to 250%; in experiment [3], 75 to 250%. The results for the AC50 in experiment [1] (setting [4]), in experiment [2] (setting [5]) and in experiment [3] were 0.1 to 1 µM, 1 to 40 µM and 1 to 40 µM, respectively. Further, the Emax in experiment [1] was 250 to 500%; in experiment [2], 75 to 250%; in experiment [3], 75 to 250%.
With `O=C([C@H](O)c1ccc2c(c1)CNCC2)N1CC2=C(C1)CN(S(=O)(=O)c1ccc(OC(F)F)cc1)C2` (single isomer, unassigned) [Example 11-2], the activation at 1.54 µM in experiment [1] lay within 250 to 50000%; in experiment [2] it was 75 to 250%; in experiment [3], 75 to 250%. The results for the AC50 in experiment [1] (setting [4]), in experiment [2] (setting [5]) and in experiment [3] were at most 0.1 µM, 0.1 to 1 µM and at most 0.1 µM, respectively. Moreover, the Emax in experiment [1] was in the range of 250 to 500%; in experiment [2], 75 to 250%; in experiment [3], 250 to 500%.
For the compound `O=C([C@H](O)c1ccccc1)N1CC2=C(C1)CN(S(=O)(=O)c1cccnc1)C2` [Example 4-1, (2R)-2-hydroxy-2-phenyl-1-[5-(pyridine-3-sulfonyl)-1H,2H,3H,4H,5H,6H-pyrrolo[3,4-c]pyrrol-2-yl]ethan-1-one], the activation at 1.54 µM in experiment [1], in experiment [2] and in experiment [3] was 75 to 250% in each case. Moreover, the AC50 in experiment [1] (setting [4]) lay in the range of 1 to 40 µM; in experiment [2] (setting [5]), 0.1 to 1 µM; in experiment [3] it was 0.1 to 1 µM. Further, the Emax was in the range of 250 to 500% in experiment [1], 75 to 250% in experiment [2] and 75 to 250% in experiment [3].
Consider `Cc1cc(CNC(=O)N2CC3=C(C2)CN(S(=O)(=O)c2ccc4ncsc4c2)C3)no1` [Example 21-8, 5-(1,3-Benzothiazole-6-sulfonyl)-N-[(5-methyl-1,2-oxazol-3-yl)methyl]-1H,2H,3H,4H,5H,6H-pyrrolo[3,4-c]pyrrole-2-carboxamide], for which the activation at 1.54 µM in experiment [1] was 250 to 50000%; in experiment [2], 75 to 250%. The AC50 in experiment [1] (setting [4]) and in experiment [2] (setting [5]) was at most 0.1 µM throughout. Besides, the Emax in experiment [1] was 250 to 500%; in experiment [2], 75 to 250%.
On to `COCCNC(=O)N1CC2=C(C1)CN(S(=O)(=O)c1ccc3c(c1)N(C)CCO3)C2` [Example 21-24], for which the activation at 1.54 µM in experiment [1] and in experiment [2] was 75 to 250% in each case. The AC50 in experiment [1] (setting [4]) and in experiment [2] (setting [5]) was 0.1 to 1 µM throughout. For the same compound, the Emax in experiment [1] was 250 to 500%; in experiment [2], 75 to 250%.
In the case of `CN1CCOc2ccc(S(=O)(=O)N3CC4=C(CN(C(=O)NCc5ccc(F)cc5)C4)C3)cc21` [Example 21-26, N-[(4-fluorophenyl)methyl]-5-[(4-methyl-3,4-dihydro-2H-1,4-benzoxazin-6-yl)sulfonyl]-1H,2H,3H,4H,5H,6H-pyrrolo[3,4-c]pyrrole-2-carboxamide], the activation at 1.54 µM in experiment [1] and in experiment [2] was 75 to 250% throughout. For the same compound, the results for the AC50 in experiment [1] (setting [4]) and in experiment [2] (setting [5]) were 0.1 to 1 µM and 1 to 40 µM, respectively. Further, the Emax in experiment [1] and in experiment [2] was 75 to 250% throughout.
Regarding `Cc1cc(CNC(=O)N2CC3=C(C2)CN(S(=O)(=O)c2cccnc2)C3)no1` [Example 21-38, N-[(5-methyl-1,2-oxazol-3-yl)methyl]-5-(pyridine-3-sulfonyl)-1H,2H,3H,4H,5H,6H-pyrrolo[3,4-c]pyrrole-2-carboxamide], the activation at 1.54 µM in experiment [1] and in experiment [2] was 75 to 250% in each case. For the same compound, the AC50 in experiment [1] (setting [4]) and in experiment [2] (setting [5]) was 1 to 40 µM in each case. The Emax in experiment [1] is 250 to 500%; in experiment [2], 75 to 250%.
Regarding `C[C@@H](C(=O)N1CC2=C(C1)CN(S(=O)(=O)c1c[nH]c3c(Cl)nccc13)C2)c1ccccc1` [Example 25], the AC50 lay within 1 to 40 µM in experiment [1] (gmean, read-out: D - AC50 LUM KGP woFBP AC50 μM gmean) and 1 to 40 µM in experiment [2] (gmean, read-out: A - AC50 LUM KGP FBP AC50 μM gmean).
